Here are results for 2 compounds from patent publication US9675701B2, “Coloured disinfectant preparation based on bispyridiniumalkane” (L'AIR LIQUIDE, SOCIETE ANONYME POUR L'ETUDE ET …, priority 2014, dated 2017).

A short description of assay [1]: Efficacy of octenidine in Octeniderm with added dye. An excerpt: However, blue dyes are not accepted by the market on account of the poor visibility of the vessels under the skin.
A further assay concerns S. aureus ATCC 6538. In words: Method A: remanence effect of the dried preparation on tiles, germ count determination. It counts as cell-based. The settings on record: preliminary experiments with a new type of method. As for the experimental part: No in-vitro method was hitherto known for being able to rapidly examine (i.e. screen) the potential impairment of the remanent effect of antiseptic active ingredients due to added dyes, and specifically in particular in the presence of large amounts of solvents, such as alcohols. […] 0.2 ml of the test preparation was spread to the edge on a tile measuring 5×5 cm and left to dry optically. Here, solvents evaporate and the antiseptic active ingredient (octenidine was tested) remains on the tile. Then, 0.1 ml of bacteria suspension (test germ S. aureus ATCC 6538, starting germ count of the solution 10^6 CFU/ml, on the tile then 10^5 CFU/ml) is applied to an area of 3×3 cm on the tile. After the corresponding contact time, the tile is transferred to a container filled with glass beads (diameter 3-4 mm) and 10 ml of neutralization solution (TLSH) and shaken for 2 minutes on a horizontal shaker at 200 rpm. Finally, a germ count determination is performed by means of dilution series. The dilution stages 10^0, 10^−1, 10^−2 and 10^−3 are plated out. The agar plates are incubated for 24-48 hours at 36±1° C. The CFU/ml resulting therefrom is used to calculate the logarithmic reduction factor (RF) for the preparations and the water control. A high […] reduction factor means good bactericidal efficacy of the preparation. […]

In the case of `CCN(CC)c1ccc(C(=C2C=CC(=[N+](CC)CC)C=C2)c2cc(O)c(S(=O)(=O)[O-])cc2S(=O)(=O)[O-])cc1.CCN(CC)c1ccc(C(=C2C=CC(=[N+](CC)CC)C=C2)c2cc(O)c(S(=O)(=O)[O-])cc2S(=O)(=O)[O-])cc1.[Ca+2]` [Patent Blue V], the “restriction of the efficacy of the octenidine in Octeniderm by the dye” value in assay [1] was “no restriction of the efficacy”.

In the case of `O=C([O-])c1ccccc1-c1c2ccc(=O)cc-2oc2cc([O-])ccc12.[Na+].[Na+]` [uranine], in the assay on S. aureus ATCC 6538, the “remanence effect of octenidine in preparations which comprise the dye” value is on record as “inhibited”.
